The record followed here is patent publication US20050019355A1, “Skin antiseptic and disinfectant” (priority 2003, published 2005).

For the assay, the system named is E. coli (ATCC 25922). The experiment in a line: Lower effective concentration of ethyl lactate, modification of AOAC Method 956.17. The assay is classed as cell-based. To be noted: 15% solution of ethyl lactate, 10 minutes exposure of E. coli. The procedure:
Using a modification of AOAC Method 956.17, the lower effective concentration for ethyl lactate was tested against E. coli (ATCC 25922) at three reaction times at varying concentrations of ethyl lactate. […] [table]

Regarding `CCOC(=O)C(C)O` (stereo not shown) [ethyl lactate], the “Bacterial growth after exposure” value is “eliminated bacterial growth”.
